{
  "source": "patent US10568819B2",
  "about": "“Skin enhancing compositions and methods” (Sytheon Limited, priority 2016, dated 2020)",
  "key": {"[1]": {"test_system": "mitochondrial dehydrogenases", "assay": "MTT assay of cellular metabolism after UVA irradiation", "assay_type": "cell-based", "conditions": "3 hours after irradiation", "method": "(§1) The study was conducted in accordance with the protocols of Berridge et al, (M V Berridge & A S Tan, Characterization of the cellular reduction of 3-(4,5-dimethylthiazol-2-yl)-2,5-diphenyltetrazolium bromide (MTT): subcellular localization, substrate dependence, and involvement of mitochondrial electron transport in MTT reduction, Arch. Biochem. Biophys. 303:474-482, 1993) and Voigt (W Voigt, Sulforhodamine B assay and chemosensitivity, Methods Mol Med, 110:39-48, 2005). Cellular metabolism is determined using the MTT assay to measure the activity of mitochondrial dehydrogenases, such as succinate dehydrogenase, which are implicated in the respiratory electron transport chain in mitochondria [M V Berridge & Tan Biochem Biophys, 303:474-482, 1993]. Additionally, the samples were subject to the Mitochondrial ToxGlo Assay (Promega Technical Manual, G8000 and G8001), which is a cell-based assay method that has been developed to quantify potential mitochondrial dysfunction as a result of xenobiotic exposure, using a sequential-addition, multiplexed chemistry.\n(§2) Table 8 presents the result on the effect of UVA radiation on cell metabolism 3 hours after irradiation. As indicated, Compound 1 improves cell metabolism, even at a very low use concentration. Table 9 presents the effect of 24 hour pre-incubation on UVA-induced mitochondrial damage measured by ATP production in human dermal fibroblasts. […] Finally. Table 10 presents the effect of 24 hour pre-incubation on UVA-induced plasma membrane disruption in human dermal fibroblasts. As indicated, Compound 1 almost completely reversed plasma membrane disruption, again at a very low use concentration."}, "COL4A1": {"test_system": "COL4A1", "assay": "DNA microarray gene expression, COL4A1", "assay_type": "cell-based", "excerpt": "(§3) In light of the efficacy of the aryl alkanones ire addressing many of the molecular/biomolecular processes damaged by UV exposure, a study was undertaken to assess whether these compounds would also be effective in addressing symptoms associated with non-UV induced skin aging including chronological aging as well as disease conditions that likewise adversely affect skin processes. The studies conducted involves DNA microarray, PCR array, cell culture, enzyme inhibitory activity."}, "human dermal fibroblasts": {"test_system": "human dermal fibroblasts", "assay": "UVA-induced mitochondrial damage measured by ATP production (Mitochondrial ToxGlo Assay)", "assay_type": "cell-based", "conditions": "24 h pre-incubation", "method": "as §1, §2"}, "Melanocytes": {"test_system": "Melanocytes", "assay": "UVA-induced delayed formation of CPDs (dCPDs) in melanocytes", "assay_type": "cell-based", "conditions": "25 μg/ml, UVA irradiation first then product added", "method": "A second study was carried out, similar to the first, except that this time the analysis was in assessing the efficacy, if any, of the presently taught aryl alkanones in reducing UVA-induced delayed formation of CPDs (dCPDs)."}, "Collagen type 1": {"test_system": "Collagen type 1", "assay": "Collagen 1 boosting in human dermal fibroblasts", "assay_type": "cell-based", "conditions": "HDF, incubation time of 6 days", "method": "In this study, an investigation was performed in relation to the ability, if any, of the aryl alkanones to boost the production of Collagens 1, 3 and 4 proteins. […] In this study, the cells used were human dermal fibroblasts (HDF), passage 12 (Cell Applications, San Diego, Calif.) which underwent an incubation time of 6 days."}, "VCAN": {"test_system": "VCAN", "assay": "DNA microarray gene expression, VCAN", "assay_type": "cell-based", "excerpt": "as §3"}, "Cell #": {"test_system": "Cell #", "assay": "Cell number (Sulforhodamine B assay) after UVA irradiation", "assay_type": "cell-based", "conditions": "3 hours after irradiation", "method": "as §1, §2"}, "VMN": {"test_system": "VMN", "assay": "DNA microarray gene expression, VMN", "assay_type": "cell-based", "excerpt": "as §3"}, "FBLN1": {"test_system": "FBLN1", "assay": "DNA microarray gene expression, FBLN1", "assay_type": "cell-based", "excerpt": "as §3"}, "MMP-12": {"target": "MMP-12 (Homo sapiens, UniProt P39900)", "sequence (P39900 106-470)": "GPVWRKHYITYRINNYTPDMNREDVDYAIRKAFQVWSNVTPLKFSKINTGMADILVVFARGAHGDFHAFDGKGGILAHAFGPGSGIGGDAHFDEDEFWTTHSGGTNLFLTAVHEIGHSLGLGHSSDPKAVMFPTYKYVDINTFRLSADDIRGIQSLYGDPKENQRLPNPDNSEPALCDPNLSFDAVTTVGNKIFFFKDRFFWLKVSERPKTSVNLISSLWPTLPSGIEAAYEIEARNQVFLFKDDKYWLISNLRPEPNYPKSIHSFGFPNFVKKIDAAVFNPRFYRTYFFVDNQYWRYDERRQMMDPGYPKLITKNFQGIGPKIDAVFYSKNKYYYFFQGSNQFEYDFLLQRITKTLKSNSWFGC", "assay": "MMP-12 (Elastase) inhibition", "assay_type": "biochemical", "conditions": "read-out: Inhibitory concentration (IC50), MMP-12", "method": "The methodology for the study of MMP-12 activity was as follows: • A 0.1 g sample of Compound 1 was dissolved in 1 ml DMSO, then it was diluted 100× with 1.4% randomly methylated cyclodextrin in Iris buffer (50 mM Tris pH 7.5, 150 mM NaCl, 2 mM CaCl2, 5μ ZnSO4, 0.01% Brij-35) to make a stock solution. For the analysis, different concentrations of Compound 1 were used to determine the IC50. In the well: 0.2 mM substrate, 0.25 μg/ml enzyme, and sample were mixed and read according to the reference (TSA Thring et al. BMC Complementary and Alternate Medicine, 9, 27, 2009; https://doi.org/10.1186/1472-6882-9-27)"}, "MMP-3 enzyme": {"target": "T1, MMP-3 enzyme (Homo sapiens, UniProt P08254)", "T1 construct": "purchased Anaspec", "T1 sequence (P08254 100-477, species assumed)": "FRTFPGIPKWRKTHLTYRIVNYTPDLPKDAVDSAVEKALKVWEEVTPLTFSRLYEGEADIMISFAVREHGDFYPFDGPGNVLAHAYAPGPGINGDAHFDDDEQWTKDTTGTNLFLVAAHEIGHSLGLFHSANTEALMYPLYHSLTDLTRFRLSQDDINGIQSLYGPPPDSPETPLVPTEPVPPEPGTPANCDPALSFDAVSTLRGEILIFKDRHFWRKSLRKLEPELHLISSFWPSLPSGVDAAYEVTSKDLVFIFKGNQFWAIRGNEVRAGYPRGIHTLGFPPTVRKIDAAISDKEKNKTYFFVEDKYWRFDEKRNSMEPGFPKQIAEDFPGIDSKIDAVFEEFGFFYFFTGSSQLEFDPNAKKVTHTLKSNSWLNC", "assay": "MMP-3 inhibition", "assay_type": "biochemical", "conditions": "read-out: Inhibitory concentration (IC50), MMP-3", "method": "Another study was conducted in which the elastin and MMP activity of Compound 1 was evaluated. The methodology for the study of MMP-1 and MMP-3 activity was as follows: • A 0.1 g sample of Compound 1 was dissolved in 1 ml DMSO, then it was diluted 100× with Tris buffer (50 mM Iris pH 7.5, 150 mM NaCl, 2 mM CaCl2, 5μ ZnO4, 0.01% Brij-35) to make a stock solution. For the analysis, different concentrations of Compound 1 were used to determine the IC50. The sample and 100 ng/ml MMP-1 enzyme (Anaspec) or MMP-3 enzyme (Anaspec) were incubated at 37° C. for 10 minutes before the addition of 2.25 μM PEPDAB008 substrate (Biozyme). The fluorescence signal was monitored at excitation of 485 nm and emission of 530 nm."}, "TIMP3": {"test_system": "TIMP3", "assay": "DNA microarray gene expression, TIMP3", "assay_type": "cell-based", "excerpt": "as §3"}, "Collagen type 3": {"test_system": "Collagen type 3", "assay": "Collagen 3 boosting in human dermal fibroblasts", "assay_type": "cell-based", "conditions": "HDF, incubation time of 6 days", "method": "In this study, an investigation was performed in relation to the ability, if any, of the aryl alkanones to boost the production of Collagens 1, 3 and 4 proteins. The study was conducted using human fibroblasts in accordance with the method of J Dobak et at (J Dobak, J Grzybowski, F T Liu, B Landon, M Dobke, 1, 25-Dihydroxyvitamin D3 increases collagen production in dermal fibroblasts, J Dermatol Sci 1994; 8:18-24, 1994). In this study, the cells used were human dermal fibroblasts (HDF), passage 12 (Cell Applications, San Diego, Calif.) which underwent an incubation time of 6 days."}, "TIMP4": {"test_system": "TIMP4", "assay": "DNA microarray gene expression, TIMP4", "assay_type": "cell-based", "excerpt": "as §3"}, "COL11A1": {"test_system": "COL11A1", "assay": "DNA microarray gene expression, COL11A1", "assay_type": "cell-based", "excerpt": "as §3"}},
  "data": [
    {"smiles": "COc1cc(CC(C(C)=O)C(C)=O)ccc1O", "note": "[Compound 1, Acetyl Zingerone]", "values": [
      {"measurement": "Cell Metabolism Standardized to cell # (% Control)", "setting": "[1]; 0.5 μg/ml", "value": 123, "unit": "% Control"},
      {"measurement": "MTT (% Control)", "setting": "[1]; 0.5 μg/ml", "value": 122, "unit": "% Control"},
      {"measurement": "Cell Metabolism Standardized to cell # (% Control)", "setting": "[1]; 2 μg/ml", "value": 136, "unit": "% Control"},
      {"measurement": "MTT (% Control)", "setting": "[1]; 2 μg/ml", "value": 137, "unit": "% Control"},
      {"measurement": "Cell Metabolism Standardized to cell # (% Control)", "setting": "[1]; 5 μg/ml", "value": 174, "unit": "% Control"},
      {"measurement": "MTT (% Control)", "setting": "[1]; 5 μg/ml", "value": 164, "unit": "% Control"},
      {"measurement": "Microarray, COL4A1 gene expression", "setting": "COL4A1", "value": "+1.6"},
      {"measurement": "ATP-related chemoluminescence (% Control)", "setting": "human dermal fibroblasts; 6.25 ug/ml", "value": 94, "unit": "% Control"},
      {"measurement": "Comments: % damage", "setting": "human dermal fibroblasts; 6.25 ug/ml", "value": "Only 6%"},
      {"measurement": "ATP-related chemoluminescence (% Control)", "setting": "human dermal fibroblasts; 12.5 ug/ml", "value": 87, "unit": "% Control"},
      {"measurement": "Comments: % damage", "setting": "human dermal fibroblasts; 12.5 ug/ml", "value": "Only 13%"},
      {"measurement": "UVA/% Reduction in dCPDs vs. control, 1 hr.", "setting": "Melanocytes; 1 hr.", "value": "1 hr.: ↓70%"},
      {"measurement": "UVA/% Reduction in dCPDs vs. control, 2 hr.", "setting": "Melanocytes; 2 hr.", "value": "2 hr.: ↓25%"},
      {"measurement": "UVA/% Reduction in dCPDs vs. control, 4 hr.", "setting": "Melanocytes; 4 hr.", "value": "4 hr.: ~0%"},
      {"measurement": "% Collagen 1 Bosting", "setting": "Collagen type 1; 50 μg/ml", "value": 118, "unit": "%"},
      {"measurement": "% Collagen 1 Bosting", "setting": "Collagen type 1; 100 μg/ml", "value": 173, "unit": "%"},
      {"measurement": "Microarray, VCAN gene expression", "setting": "VCAN", "value": "+1.7"},
      {"measurement": "Cell # (% Control)", "setting": "Cell #; 0.5 μg/ml", "value": 99, "unit": "% Control"},
      {"measurement": "Cell # (% Control)", "setting": "Cell #; 2 μg/ml", "value": 101, "unit": "% Control"},
      {"measurement": "Cell # (% Control)", "setting": "Cell #; 5 μg/ml", "value": 95, "unit": "% Control"},
      {"measurement": "Microarray, VMN gene expression", "setting": "VMN", "value": "+1.7"},
      {"measurement": "Microarray, FBLN1 gene expression", "setting": "FBLN1", "value": "+1.9"},
      {"measurement": "IC50", "setting": "MMP-12", "value": 1060, "unit": "µM"},
      {"measurement": "IC50", "setting": "MMP-3 enzyme", "value": 2140, "unit": "µM"},
      {"measurement": "Microarray, TIMP3 gene expression", "setting": "TIMP3", "value": "+5.1"},
      {"measurement": "% Collagen 3 boosting", "setting": "Collagen type 3; 50 μg/ml", "value": 111, "unit": "%"},
      {"measurement": "% Collagen 3 boosting", "setting": "Collagen type 3; 100 μg/ml", "value": 146, "unit": "%"},
      {"measurement": "Microarray, TIMP4 gene expression", "setting": "TIMP4", "value": "+1.6"},
      {"measurement": "Microarray, COL11A1 gene expression", "setting": "COL11A1", "value": "+1.6"}
    ]}
  ]
}
